The text below walks through data of PMC4433340 (PLoS Neglected Tropical Diseases, 2015).

Read-outs that look alike come from different tables or passages of the source.

The subject of assay [1] is EA.hy926 cells. As to the kind of experiment: Cell viability by MTT reduction assay, EA.hy926 cells. The settings on record: Homo sapiens, EA.hy 926, 24 hours incubation, mean ± SD, n = 3, read-out: IC50, cellular viability, EA.hy926 cells. It is filed as cell-based. The procedure: EA.hy926 cells (ATCC CRL2922) are a human umbilical vein cell line established by fusing primary human umbilical vein cells with a thioguanine-resistant clone of A549 by exposure to polyethylene glycol (PEG). Hybrid clones were selected in HAT medium and screened for factor VIII-related antigen. The cell line was cultured following reported conditions. Cells were cultured on Iscove's Modified Dulbecco's Medium (IMDM, Biological Industries, Israel) supplemented with 10% v/v FBS, 100 U/mL penicillin, and […] streptomycin at 37°C and 5% CO2.
(§1) The effect of the drug on all cells and parasite viability was evaluated through the tetrazolium salt (MTT, Sigma-Aldrich) reduction assay as described. […] Cultures were incubated for 24 hours before adding MTT for 4 hours. The plates were incubated overnight with 10% SDS w/v in 0.01 M HCl at 37°C, and optical density (OD) was determined using a microplate reader (Labsystems Multiskan MS, Finland) at 570 nm. Under these conditions, the OD was directly proportional to viable cell number per well. All of the experiments were performed at least three times, and the data are shown as the means and their standard deviations from triplicate cultures.

The subject of assay [2] is HL-60 leukocyte adhesion to T. cruzi-infected endothelial cells. As to the kind of experiment: Leukocyte-endothelium cell adhesion assay. The conditions noted are these: 5 μM simvastatin or 20 μM benznidazole for 24 hours before 16 hours infection; HL-60 leukocytes. It is filed as cell-based, human. The procedure: The leukocyte adhesion assay was performed with the Cytoselect Leukocyte-Endothelium Adhesion Assay kit (CBA-210; Cell Biolabs, USA). Briefly, EA.hy926 cells were cultured in 96-well plates that had been previously coated with gelatin for 1 hour. […] LeukoTracker-labeled leukocytes (HL60 cells) were added to the monolayer and incubated for 90 min. After thorough washing, cells were lysed, and fluorescence was measured at 480 nm excitation/520 nm emission. The percentage of adherent leukocytes was calculated: % adherence = adherent signal/total signal. All of the determinations were performed in triplicate using a fluorescence microplate reader (Varioskan, Thermo Scientific).

For assay [3], the system named is HL-60 cells. Put plainly: Cell viability by MTT reduction assay, HL-60 cells. It is filed as cell-based. The conditions noted are these: Homo sapiens, 24 hours incubation, mean ± SD, n = 3, read-out: IC50, cellular viability, HL-60 cells. Here is the method:
HL-60 cells (ATCC CCL240) are a promyelocytic cell line that was derived by S.J. Collins et al. Peripheral blood leukocytes were obtained by leukapheresis from a person with acute promyelocytic leukemia. The cell line was cultured with Iscove's Modified Dulbecco's Medium plus 10% v/v FBS.
as §1
(In general: Tetrazolium assays rely on reduction of a dye to a coloured formazan, in cell work by metabolically active cells.)

Assay [4] deals with Trypomastigotes Dm28c. Put plainly: Parasite viability by MTT reduction assay, trypomastigotes. The class given is cell-based. The settings on record: Trypanosoma cruzi, read-out: IC50, cellular viability, Trypomastigotes Dm28c. Here is the method:
T. cruzi trypomastigotes (Dm28c clone) from our collection, were obtained from infected EA.hy926 cells. Cells were exposed to trypomastigotes (Dm28c clone) at a multiplicity of infection (MOI) of 5. Trypomastigotes were allowed to infect cells for 24 hours, after which the supernatant was removed and fresh medium was added. Trypomastigotes were released from EA.hy926 cells after four days of infection. The parasites were harvested and collected for viability assays and further cell infections.
The effect of the drug on all cells and parasite viability was evaluated through the tetrazolium salt (MTT, Sigma-Aldrich) reduction assay as described. Drugs at concentrations ranging from 1 to 20 μM, dissolved in DMSO at a 0.025% v/v final concentration, were applied to 2.5x10^5 cells/mL or 10^6 parasite/mL culture medium. Cultures were incubated for 24 hours before adding MTT for 4 hours. The plates were incubated overnight with 10% SDS w/v in 0.01 M HCl at 37°C, and optical density (OD) was determined using a microplate reader (Labsystems Multiskan MS, Finland) at 570 nm. Under these conditions, the OD was directly proportional to viable cell number per well. All of the experiments were performed at least three times, and the data are shown as the means and their standard deviations from triplicate cultures.

Assay [5] deals with HUVEC. Put plainly: Cell viability by MTT reduction assay, HUVEC. It is filed as cell-based. The conditions noted are these: Homo sapiens, 24 hours incubation, mean ± SD, n = 3, read-out: IC50, cellular viability, HUVEC. Here is the method:
HUVECs (C-015-10C, Cascade Biologics, Life Technologies, USA) are primary human umbilical vein endothelial cells that are pooled from multiple donors. Cells were cultured in medium 200 (Cascade Biologics, USA) that had been supplemented with low serum growth supplement (LSGS, Cascade Biologics).
as §1

Assay [6] concerns intracellular T. cruzi amastigotes in EA.hy926 cells. Put plainly: DAPI staining and intracellular amastigote quantification. It is filed as cell-based, Trypanosoma cruzi. The conditions noted are these: 5 μM simvastatin or 20 μM benznidazole for 24 hours before infection; counted after 72 hours. Here is the method:
2x10^4 EA.hy926 cells/slide were seeded in Lab-Tek II Chamber Slides for 12 h. […] Then, the cells were washed and fixed in cold methanol (70%) overnight. The fixed cells were then washed, and 1 mL PBS (pH 7.4) was added. DNA was stained with DAPI (NucBlue; Molecular Probes, USA) following the manufacturer's instructions. The cells were photographed using a Nikon Eclipse 400 fluorescence microscope using 358 nm (excitation) and 461 nm (emission) wavelengths. In total, ten pictures were obtained per well, and each picture was counted using MATLAB software.
In Fig 3, total E-selectin (Fig 3A), ICAM-1 (Fig 3B) and VCAM-1 (Fig 3C) protein expression analyses are shown. […] To evaluate parasite load, DAPI-stained cells were photographed (20.12 ± 3.8 cells per photograph, 20 photographs per experimental condition; infected to uninfected cells ratio of 1:5) and the number of intracellular amastigotes was determined by manual count.

One may read the IC50 as the concentration at which inhibition is half-maximal. Turning to `O=C(Cn1ccnc1[N+](=O)[O-])NCc1ccccc1` [Benznidazole], the half-inhibitory concentration (IC50) in assay [1] was under 100 µM; in assay [3], under 100 µM; in assay [4] (24 h), 20.8 ± 1.35 µM; in assay [5] it was under 100 µM. Besides, the “Leukocyte adhesiveness to infected endothelial cells” value in assay [2] was “adhesiveness decreased”. Further, the “Intracellular T. cruzi (amastigote) load” value in assay [6] is “not affected”.
Take `CCC(C)(C)C(=O)O[C@H]1C[C@@H](C)C=C2C=C[C@H](C)[C@H](CC[C@@H]3C[C@@H](O)CC(=O)O3)[C@H]21` [Simvastatin]: the concentration for half-maximal inhibition (IC50) came to 65.4 ± 1.02 µM in assay [1]; 68 ± 1.11 µM in assay [3]; 4.2 ± 1.06 µM in assay [4] (MTT assay, 24 hours incubation, mean ± SD, n = 3); 84.4 ± 1.56 µM in assay [5]. Besides, the “Leukocyte adhesiveness to infected endothelial cells” value in assay [2] is on record as “adhesiveness decreased”. Moreover, the “Intracellular T. cruzi (amastigote) load” value in assay [6] was “not affected”.
